Assay results published in the kinase profiling compilation of Christmann-Franck et al. (2016).

Tests used:
Experiment in all cases: Caliper, Mobility shift assay off-chip
[1] = molecular target: HIPK1 (human) (UniProt Q86Z02)
[2] = molecular target: JAK2 JH1 JH2 (human) (UniProt O60674)
[3] = molecular target: PRKCH (human) (UniProt P24723)
[4] = molecular target: EPHB2 (human) (UniProt P29323)
[5] = molecular target: DYRK1A (human) (UniProt Q13627)
[6] = molecular target: RPS6KA4 KD1 KD2 (human) (UniProt O75676)
[7] = molecular target: ERBB2 (human) (UniProt P04626)
[8] = molecular target: ZAP70 (human) (UniProt P43403)
[9] = molecular target: EPHA7 (human) (UniProt Q15375)
[10] = molecular target: WNK2 (human) (UniProt Q9Y3S1)
[11] = molecular target: NUAK1 (human) (UniProt O60285)
[12] = molecular target: MARK1 (human) (UniProt Q9P0L2)
[13] = molecular target: PRKCG (human) (UniProt P05129)
[14] = molecular target: DYRK1B (human) (UniProt Q9Y463)
[15] = molecular target: MARK4 (human) (UniProt Q96L34)
[16] = molecular target: CHEK2 (human) (UniProt O96017)
[17] = molecular target: EPHB3 (human) (UniProt P54753)
[18] = molecular target: IRAK4 (human) (UniProt Q9NWZ3)
[19] = molecular target: MYLK2 (human) (UniProt Q9H1R3); settings: compound 0.2 µM
[20] = molecular target: ALK (human) (UniProt Q9UM73)
[21] = molecular target: PRKCZ (human) (UniProt Q05513)
[22] = molecular target: MAPK1 (human) (UniProt P28482)
[23] = molecular target: PDPK1 (human) (UniProt O15530)
[24] = molecular target: MKNK2 (human) (UniProt Q9HBH9)
[25] = molecular target: CDK3 (human) (UniProt Q00526)
[26] = molecular target: SGK1 (human) (UniProt O00141)
[27] = molecular target: RET (human) (UniProt P07949)
[28] = molecular target: ROCK1 (human) (UniProt Q13464)
[29] = molecular target: MAPK14 (human) (UniProt Q16539)
[30] = molecular target: PRKACA (human) (UniProt P17612)
[31] = molecular target: TBK1 (human) (UniProt Q9UHD2)
[32] = molecular target: CSNK1G1 (human) (UniProt Q9HCP0)
[33] = molecular target: CSNK1G2 (human) (UniProt P78368)
[34] = molecular target: CAMK1D (human) (UniProt Q8IU85)

ERBB2 (human), sequence (P04626 whole entry, looked up): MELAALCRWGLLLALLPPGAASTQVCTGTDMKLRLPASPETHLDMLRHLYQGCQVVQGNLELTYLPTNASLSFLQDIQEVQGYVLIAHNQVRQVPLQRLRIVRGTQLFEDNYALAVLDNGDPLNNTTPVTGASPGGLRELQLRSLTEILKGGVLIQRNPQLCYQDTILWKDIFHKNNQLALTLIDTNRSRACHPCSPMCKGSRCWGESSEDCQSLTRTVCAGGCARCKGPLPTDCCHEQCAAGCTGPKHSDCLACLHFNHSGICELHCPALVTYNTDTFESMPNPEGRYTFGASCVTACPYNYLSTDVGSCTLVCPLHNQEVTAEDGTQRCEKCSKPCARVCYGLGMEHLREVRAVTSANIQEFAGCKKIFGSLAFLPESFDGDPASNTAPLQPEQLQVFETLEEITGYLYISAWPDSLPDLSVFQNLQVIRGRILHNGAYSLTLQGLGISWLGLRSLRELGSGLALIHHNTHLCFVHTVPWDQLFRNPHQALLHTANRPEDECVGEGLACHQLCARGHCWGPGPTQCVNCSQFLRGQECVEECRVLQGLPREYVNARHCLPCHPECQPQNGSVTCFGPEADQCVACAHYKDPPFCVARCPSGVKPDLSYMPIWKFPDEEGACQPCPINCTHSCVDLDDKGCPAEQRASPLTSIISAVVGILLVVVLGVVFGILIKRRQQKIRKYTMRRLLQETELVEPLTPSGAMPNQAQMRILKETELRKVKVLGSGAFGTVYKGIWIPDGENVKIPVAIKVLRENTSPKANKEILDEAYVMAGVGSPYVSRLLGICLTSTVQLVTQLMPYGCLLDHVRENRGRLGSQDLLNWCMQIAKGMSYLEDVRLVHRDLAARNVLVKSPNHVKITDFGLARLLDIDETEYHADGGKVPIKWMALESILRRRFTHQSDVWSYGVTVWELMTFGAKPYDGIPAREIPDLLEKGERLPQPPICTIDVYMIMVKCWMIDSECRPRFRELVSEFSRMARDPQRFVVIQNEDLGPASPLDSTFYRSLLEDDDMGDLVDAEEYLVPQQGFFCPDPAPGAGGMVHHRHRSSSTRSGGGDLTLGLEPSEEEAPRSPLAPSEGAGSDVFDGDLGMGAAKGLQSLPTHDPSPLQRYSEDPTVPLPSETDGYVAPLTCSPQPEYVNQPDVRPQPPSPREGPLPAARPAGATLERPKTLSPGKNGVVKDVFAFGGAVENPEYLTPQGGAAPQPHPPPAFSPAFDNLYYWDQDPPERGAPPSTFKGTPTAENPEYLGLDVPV
MKNK2 (human), sequence (Q9HBH9 whole entry, looked up): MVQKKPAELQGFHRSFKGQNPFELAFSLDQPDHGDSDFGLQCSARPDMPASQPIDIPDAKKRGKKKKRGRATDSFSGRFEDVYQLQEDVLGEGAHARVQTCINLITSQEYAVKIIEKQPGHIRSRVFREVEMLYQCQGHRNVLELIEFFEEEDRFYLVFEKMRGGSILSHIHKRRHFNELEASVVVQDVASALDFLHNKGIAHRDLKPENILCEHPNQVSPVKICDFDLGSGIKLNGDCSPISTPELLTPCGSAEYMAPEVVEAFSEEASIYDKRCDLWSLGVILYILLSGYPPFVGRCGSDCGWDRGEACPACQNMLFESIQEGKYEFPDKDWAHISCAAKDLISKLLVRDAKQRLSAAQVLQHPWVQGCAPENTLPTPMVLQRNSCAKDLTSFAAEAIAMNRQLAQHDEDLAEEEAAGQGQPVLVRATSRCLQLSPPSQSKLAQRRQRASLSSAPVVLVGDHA
EPHB3 (human), sequence (P54753 whole entry, looked up): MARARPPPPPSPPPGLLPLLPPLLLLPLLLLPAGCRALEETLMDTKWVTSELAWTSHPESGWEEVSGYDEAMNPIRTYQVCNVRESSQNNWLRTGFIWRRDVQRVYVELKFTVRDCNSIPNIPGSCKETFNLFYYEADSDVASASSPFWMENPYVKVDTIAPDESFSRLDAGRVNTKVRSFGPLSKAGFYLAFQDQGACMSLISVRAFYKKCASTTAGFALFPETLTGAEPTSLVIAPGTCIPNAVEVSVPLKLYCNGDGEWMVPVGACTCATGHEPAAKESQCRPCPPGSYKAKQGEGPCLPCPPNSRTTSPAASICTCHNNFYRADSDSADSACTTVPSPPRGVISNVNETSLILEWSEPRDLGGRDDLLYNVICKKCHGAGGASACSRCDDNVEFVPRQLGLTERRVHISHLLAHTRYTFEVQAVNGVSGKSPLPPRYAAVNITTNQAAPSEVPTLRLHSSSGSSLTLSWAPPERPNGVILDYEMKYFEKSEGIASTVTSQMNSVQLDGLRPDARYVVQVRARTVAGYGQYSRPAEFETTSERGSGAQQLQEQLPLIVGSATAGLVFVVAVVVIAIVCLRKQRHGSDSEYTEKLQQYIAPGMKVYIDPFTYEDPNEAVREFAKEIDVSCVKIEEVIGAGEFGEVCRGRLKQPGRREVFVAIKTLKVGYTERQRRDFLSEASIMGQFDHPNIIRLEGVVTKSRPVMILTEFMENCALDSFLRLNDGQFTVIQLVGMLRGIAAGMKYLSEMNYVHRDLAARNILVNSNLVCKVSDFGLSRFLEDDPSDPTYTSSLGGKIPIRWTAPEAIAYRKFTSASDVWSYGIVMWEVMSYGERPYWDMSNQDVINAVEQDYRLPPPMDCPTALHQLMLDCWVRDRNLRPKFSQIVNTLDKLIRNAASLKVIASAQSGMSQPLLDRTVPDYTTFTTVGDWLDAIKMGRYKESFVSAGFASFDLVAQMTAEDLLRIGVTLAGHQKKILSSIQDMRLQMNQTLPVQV
SGK1 (human), sequence (O00141 whole entry, looked up): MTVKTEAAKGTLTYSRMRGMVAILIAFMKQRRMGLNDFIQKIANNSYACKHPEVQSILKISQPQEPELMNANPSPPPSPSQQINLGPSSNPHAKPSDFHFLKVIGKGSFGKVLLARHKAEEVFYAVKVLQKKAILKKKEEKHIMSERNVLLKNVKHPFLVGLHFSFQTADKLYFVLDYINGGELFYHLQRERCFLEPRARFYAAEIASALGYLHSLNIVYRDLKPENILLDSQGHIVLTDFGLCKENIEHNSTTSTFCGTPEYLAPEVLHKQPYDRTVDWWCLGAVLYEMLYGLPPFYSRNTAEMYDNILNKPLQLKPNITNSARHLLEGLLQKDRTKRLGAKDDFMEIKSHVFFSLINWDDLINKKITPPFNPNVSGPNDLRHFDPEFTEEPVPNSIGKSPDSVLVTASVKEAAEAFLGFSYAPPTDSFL
RET (human), sequence (P07949 whole entry, looked up): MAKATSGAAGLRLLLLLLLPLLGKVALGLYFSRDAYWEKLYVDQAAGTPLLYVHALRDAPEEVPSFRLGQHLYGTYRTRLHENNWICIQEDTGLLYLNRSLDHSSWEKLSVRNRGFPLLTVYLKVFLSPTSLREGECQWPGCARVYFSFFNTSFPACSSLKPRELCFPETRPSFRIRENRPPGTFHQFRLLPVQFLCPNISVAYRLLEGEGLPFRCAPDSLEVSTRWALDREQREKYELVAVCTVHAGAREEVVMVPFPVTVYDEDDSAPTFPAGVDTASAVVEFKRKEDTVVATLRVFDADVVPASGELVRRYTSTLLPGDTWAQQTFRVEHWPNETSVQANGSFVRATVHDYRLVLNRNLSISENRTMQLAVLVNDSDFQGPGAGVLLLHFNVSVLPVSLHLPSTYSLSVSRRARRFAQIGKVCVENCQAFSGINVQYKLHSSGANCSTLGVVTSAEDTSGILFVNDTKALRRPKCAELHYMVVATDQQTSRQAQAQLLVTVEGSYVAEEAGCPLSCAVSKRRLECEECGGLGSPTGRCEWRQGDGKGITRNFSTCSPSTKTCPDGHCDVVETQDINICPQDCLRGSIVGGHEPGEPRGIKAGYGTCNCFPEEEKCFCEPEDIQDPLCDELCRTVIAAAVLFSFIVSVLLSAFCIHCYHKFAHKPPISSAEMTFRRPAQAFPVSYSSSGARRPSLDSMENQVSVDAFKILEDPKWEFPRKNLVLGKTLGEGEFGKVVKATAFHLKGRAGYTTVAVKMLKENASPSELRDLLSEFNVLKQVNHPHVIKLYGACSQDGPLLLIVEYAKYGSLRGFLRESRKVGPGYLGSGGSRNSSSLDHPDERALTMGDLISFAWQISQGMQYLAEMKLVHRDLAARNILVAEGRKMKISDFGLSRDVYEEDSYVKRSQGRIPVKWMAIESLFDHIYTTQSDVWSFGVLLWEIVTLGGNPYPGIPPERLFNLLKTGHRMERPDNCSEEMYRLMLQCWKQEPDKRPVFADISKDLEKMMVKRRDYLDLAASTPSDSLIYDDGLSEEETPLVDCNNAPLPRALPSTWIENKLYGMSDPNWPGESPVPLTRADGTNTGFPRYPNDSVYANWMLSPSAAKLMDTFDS
MARK1 (human), sequence (Q9P0L2 whole entry, looked up): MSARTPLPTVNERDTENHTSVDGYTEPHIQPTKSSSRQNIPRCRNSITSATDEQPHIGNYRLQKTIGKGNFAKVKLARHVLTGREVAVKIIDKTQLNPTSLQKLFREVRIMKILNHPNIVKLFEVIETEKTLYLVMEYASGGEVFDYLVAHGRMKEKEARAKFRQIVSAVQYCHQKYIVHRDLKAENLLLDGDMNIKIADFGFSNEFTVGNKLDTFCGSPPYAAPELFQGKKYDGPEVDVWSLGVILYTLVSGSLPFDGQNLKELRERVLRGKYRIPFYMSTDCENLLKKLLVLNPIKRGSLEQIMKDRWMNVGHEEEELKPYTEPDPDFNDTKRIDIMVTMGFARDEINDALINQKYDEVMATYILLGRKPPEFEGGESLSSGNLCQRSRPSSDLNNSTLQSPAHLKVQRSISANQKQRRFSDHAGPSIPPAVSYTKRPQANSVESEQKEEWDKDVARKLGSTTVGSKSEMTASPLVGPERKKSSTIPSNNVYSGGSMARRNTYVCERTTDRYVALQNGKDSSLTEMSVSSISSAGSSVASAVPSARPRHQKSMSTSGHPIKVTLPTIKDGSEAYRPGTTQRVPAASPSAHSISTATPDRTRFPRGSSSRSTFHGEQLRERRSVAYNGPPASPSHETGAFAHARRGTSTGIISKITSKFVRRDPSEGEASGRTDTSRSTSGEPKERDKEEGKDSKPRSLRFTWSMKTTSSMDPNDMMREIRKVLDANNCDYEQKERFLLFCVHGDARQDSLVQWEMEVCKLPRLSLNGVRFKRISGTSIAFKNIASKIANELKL

With `CCN(CC)CCNC(=O)c1c(C)[nH]c(/C=C2\C(=O)Nc3ccc(F)cc32)c1C` the inhibition ([1]; compound 0.2 µM) was 51.3%, the inhibition ([1]; compound 4.0 µM) was 94.4% and the inhibition ([2]; compound 0.2 µM) was 36.5%. The inhibition ([2]; compound 4.0 µM) was 94.6%, the inhibition ([3]; compound 0.2 µM) was 2.3% and the inhibition ([3]; compound 4.0 µM) was 20.7%. The inhibition ([4]; compound 0.2 µM) was 22.2%, the inhibition ([4]; compound 4.0 µM) was 79.1% and the inhibition ([5]; compound 0.2 µM) was 23%. For the same compound, the inhibition ([5]; compound 4.0 µM) was 82.1%, the inhibition ([6]; compound 0.2 µM) was 15.5% and the inhibition ([6]; compound 4.0 µM) was 73.7%. The inhibition ([7]; compound 0.2 µM) was -3.2%, the inhibition ([7]; compound 4.0 µM) was -2.9% and the inhibition ([8]; compound 0.2 µM) was 6.8%. For the same compound, the inhibition ([8]; compound 4.0 µM) was 37.7%, the inhibition ([9]; compound 0.2 µM) was 19.8% and the inhibition ([9]; compound 4.0 µM) was 82%. For the same compound, the inhibition ([10]; compound 0.2 µM) was 1.7%, the inhibition ([10]; compound 4.0 µM) was -2.1% and the inhibition ([11]; compound 0.2 µM) was 95.6%. For the same compound, the inhibition ([11]; compound 4.0 µM) was 101%, the inhibition ([12]; compound 0.2 µM) was 68.8% and the inhibition ([12]; compound 4.0 µM) was 96.8%. For the same compound, the inhibition ([13]; compound 0.2 µM) was 0.1%, the inhibition ([13]; compound 4.0 µM) was 38.9% and the inhibition ([14]; compound 4.0 µM) was 74.7%. It also gave an inhibition ([15]; compound 0.2 µM) of 76.3%, an inhibition ([15]; compound 4.0 µM) of 100% and an inhibition ([16]; compound 0.2 µM) of 78.8%. For the same compound, the inhibition ([16]; compound 4.0 µM) was 98.8%, the inhibition ([17]; compound 0.2 µM) was -1.7% and the inhibition ([17]; compound 4.0 µM) was 15.3%. It also gave an inhibition ([18]; compound 0.2 µM) of 35.6%, an inhibition ([18]; compound 4.0 µM) of 90.4% and an inhibition [19] of 81.9%. The inhibition ([20]; compound 0.2 µM) was 82.2%, the inhibition ([20]; compound 4.0 µM) was 102% and the inhibition ([21]; compound 0.2 µM) was -1.5%. The inhibition ([21]; compound 4.0 µM) was 13.5%, the inhibition ([22]; compound 0.2 µM) was -7.5% and the inhibition ([22]; compound 4.0 µM) was -1.7%. For the same compound, the inhibition ([23]; compound 0.2 µM) was -0.3%, the inhibition ([23]; compound 4.0 µM) was 36.5% and the inhibition ([24]; compound 0.2 µM) was 3.2%. It also gave an inhibition ([24]; compound 4.0 µM) of 28%, an inhibition ([25]; compound 0.2 µM) of 0.3% and an inhibition ([25]; compound 4.0 µM) of 36.6%. It also gave an inhibition ([26]; compound 0.2 µM) of 28.6%, an inhibition ([26]; compound 4.0 µM) of 87.8% and an inhibition ([27]; compound 0.2 µM) of 99.2%. The inhibition ([27]; compound 4.0 µM) was 103%, the inhibition ([28]; compound 0.2 µM) was 8.9% and the inhibition ([28]; compound 4.0 µM) was 55.4%. For the same compound, the inhibition ([29]; compound 0.2 µM) was -6.9%, the inhibition ([29]; compound 4.0 µM) was -20.4% and the inhibition ([30]; compound 0.2 µM) was 0.6%. It also gave an inhibition ([30]; compound 4.0 µM) of 49%, an inhibition ([31]; compound 0.2 µM) of 28.1% and an inhibition ([31]; compound 4.0 µM) of 87.5%.

For `Cc1ccc(Nc2nccc(N(C)c3ccc4c(C)n(C)nc4c3)n2)cc1S(N)(=O)=O`, the inhibition ([1]; compound 0.02 µM) was 2.6%, the inhibition ([1]; compound 0.2 µM) was 7.3% and the inhibition ([2]; compound 0.02 µM) was 4.8%. It also gave an inhibition ([2]; compound 0.2 µM) of 11.4%, an inhibition ([3]; compound 0.02 µM) of 6.7% and an inhibition ([3]; compound 0.2 µM) of 4.3%. For the same compound, the inhibition ([4]; compound 0.02 µM) was -1.3%, the inhibition ([4]; compound 0.2 µM) was -2.7% and the inhibition ([6]; compound 0.02 µM) was -2.4%. It also gave an inhibition ([6]; compound 0.2 µM) of 3.7%, an inhibition ([7]; compound 0.02 µM) of 0% and an inhibition ([7]; compound 0.2 µM) of -1.5%. The inhibition ([8]; compound 0.02 µM) was 7%, the inhibition ([8]; compound 0.2 µM) was 13.3% and the inhibition ([9]; compound 0.02 µM) was 0.1%. For the same compound, the inhibition ([9]; compound 0.2 µM) was 1.7%, the inhibition ([10]; compound 0.02 µM) was 1% and the inhibition ([10]; compound 0.2 µM) was 4.3%. It also gave an inhibition ([11]; compound 0.02 µM) of -7.8%, an inhibition ([11]; compound 0.2 µM) of 42% and an inhibition ([12]; compound 0.02 µM) of 4.6%. It also gave an inhibition ([12]; compound 0.2 µM) of 3%, an inhibition ([32]; compound 0.02 µM) of -0.9% and an inhibition ([32]; compound 0.2 µM) of -1%. It also gave an inhibition ([33]; compound 0.02 µM) of 1.7%, an inhibition ([33]; compound 0.2 µM) of 0.3% and an inhibition ([13]; compound 0.02 µM) of 4%. It also gave an inhibition ([13]; compound 0.2 µM) of -6.3%, an inhibition ([14]; compound 0.02 µM) of -4.3% and an inhibition ([14]; compound 0.2 µM) of 7.4%. For the same compound, the inhibition ([34]; compound 0.02 µM) was -0.2%, the inhibition ([34]; compound 0.2 µM) was 2.9% and the inhibition ([15]; compound 0.02 µM) was -4.1%. The inhibition ([15]; compound 0.2 µM) was -6.3%, the inhibition ([16]; compound 0.02 µM) was 4.1% and the inhibition ([16]; compound 0.2 µM) was 4.1%. For the same compound, the inhibition ([17]; compound 0.02 µM) was -6.1%, the inhibition ([17]; compound 0.2 µM) was -4% and the inhibition ([18]; compound 0.02 µM) was -4.3%. The inhibition ([18]; compound 0.2 µM) was -3.9%, the inhibition ([20]; compound 0.02 µM) was 10.1% and the inhibition ([20]; compound 0.2 µM) was 7.9%. It also gave an inhibition ([21]; compound 0.02 µM) of 2.5%, an inhibition ([21]; compound 0.2 µM) of -1.1% and an inhibition ([22]; compound 0.02 µM) of -10.8%. For the same compound, the inhibition ([22]; compound 0.2 µM) was -6.6%, the inhibition ([23]; compound 0.02 µM) was -5% and the inhibition ([23]; compound 0.2 µM) was -3.3%. The inhibition ([24]; compound 0.02 µM) was 2.7%, the inhibition ([24]; compound 0.2 µM) was 1.5% and the inhibition ([25]; compound 0.02 µM) was -2.4%. The inhibition ([25]; compound 0.2 µM) was -4.3%, the inhibition ([26]; compound 0.02 µM) was -0.7% and the inhibition ([26]; compound 0.2 µM) was -4.1%. The inhibition ([27]; compound 0.02 µM) was 32.3%, the inhibition ([27]; compound 0.2 µM) was 82.1% and the inhibition ([28]; compound 0.02 µM) was 1.7%. The inhibition ([28]; compound 0.2 µM) was 4.4%, the inhibition ([29]; compound 0.02 µM) was -9% and the inhibition ([29]; compound 0.2 µM) was -2.5%. For the same compound, the inhibition ([30]; compound 0.02 µM) was -6.3%, the inhibition ([30]; compound 0.2 µM) was -5% and the inhibition ([31]; compound 0.02 µM) was -0.2%. It also gave an inhibition ([31]; compound 0.2 µM) of -1.1%.
